Consider 3 molecules from patent US4255183A, “Substituted phenyl urea and herbicides for use in paddy field” (Hokko Chemical Industry Co., Ltd., priority 1977, dated 1981).

Data set [1] relates to paddy rice. The data set can be described thus: Test Example 3: field test in transplanted paddy field, paddy rice. The data set is classed as in vivo, paddy rice (Asahi species). Conditions: Oryza sativa; 300 g/10 are, granule, applied 25 days after transplantation, examined 60 days after transplantation. Here is the method:
(§1) In a Wagner pot of 1/500 are, paddy field soil (alluvial soil) was placed and 50 seeds of Echinochloa crus-galli var. oryzicola and 30 seeds of paddy rice were seeded in the surface layer of said soil and the submerging depth was kept at about 1 cm. When Echinochloa crus-galli var. oryzicola reached at the one leaf stage and 5-leaf stage, the emulsion of a predetermined concentration, prepared according to Example 4 was added dropwise. After 30 days from the treatment with the chemical, dry weights of Echinochloa crus-galli var. oryzicola and paddy rice were measured and the inhibition rate was calculated with reference to untreated area. [formula]
In a 10 m^2 paddy field, young seedlings of paddy rice (Asahi species) at the 2,5-leaf stage were transplanted 30 days after the puddling the submerging at the depth of 3-5 cm. 25 Days after the transplantation, when Echinochloa crus-galli var. oryzicola reached 4-leaf stage, a predetermined dose of the granule prepared according to Example 1 was applied. Test results were examined 60 days after the transplantation of paddy rice in the similar manner as in Test Example 1.
Comparative chemicals used were all those commercially available and in the case of the comparative chemical 2, CNP was applied 3 days after the transplantation of paddy rice and after 25 days a mixture of Benthiocarb and Simetryne was applied.

The next data set in a line: Acute oral toxicity. Conditions: in vivo, SD-strain rat. The procedure:
Acute oral toxicity LD50 value of the compound of the invention measured on SD-strain rat is more than 2,000 mg/Kg for any of the trans-form, cis-form and a mixture thereof in equal amount and further acute fish toxicity TLm value (as defined by Official Standard issued from Ministry of Agriculture & Forestry) measured on young carp is more than 20 ppm for any of the above compounds.

Data set [2] has as its system paddy rice. Nature of the data set: Test Example 1: pot test on selectivity, inhibition of paddy rice. Type of data set: in vivo. Conditions: for Inhibition (%) by treatment at 1-leaf stage, paddy rice / Inhibition (%) by treatment at 5-leaf stage, paddy rice / inhibition at 750 g/ha / inhibition at 1500 g/ha / inhibition at 3000 g/ha / inhibition at 6000 g/ha / inhibition at 9000 g/ha: dry weight 30 days after treatment; for inhibition at 750 g/ha / inhibition at 1500 g/ha / inhibition at 3000 g/ha / inhibition at 6000 g/ha / inhibition at 9000 g/ha: Oryza sativa, 720 h; for selectivity to paddy rice: trans-form, cis-form and mixtures compared. An outline of the steps: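 Alluvial paddy soil in pots sown with Echinochloa crus-galli var. oryzicola (50 seeds) and paddy rice (30 seeds), submerged about 1 cm. Dry weights taken 30 days after chemical treatment; inhibition rate calculated relative to untreated area.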

Data set [3] deals with paddy rice. Nature of the data set: whole plant or invertebrate. The data set is classed as in vivo, paddy rice (Asahi species). Conditions: Oryza sativa, 720 h, granule, 30 days; for inhibition at 1000 g/ha: 100 g/10 are; for inhibition at 3000 g/ha: 300 g/10 are; for inhibition at 9000 g/ha: 900 g/10 are. The essentials:
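Barnyardgrass seeded in flooded alluvial paddy soil (~3 cm water) in concrete pots, with 2.5-leaf Asahi rice transplanted before weed emergence. Granules applied at weed 1-leaf or 5-leaf stage. Dry weights measured 30 days after treatment; inhibition rate calculated versus untreated area.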

Data set [4] deals with paddy rice. Nature of the data set: Test Example 4: field test in submerged directly seeded paddy field, paddy rice. Conditions: Oryza sativa, 504 h; 300 g/10 are, emulsion, 2- to 3-leaf stage, 21 days after application. Type of data set: in vivo, paddy rice (Asahi species). The procedure:
as §1
In a 10 m^2 paddy field, 30 g of Echinochloa crus-galli var. oryzicola seeds were seeded at the time of puddling and the depth of submerging was kept at 3-5 cm. 3 Days after the puddling, 50 g of paddy rice at the emergence stage (Asahi species) were seeded. When Echinochloa crus-galli var. oryzicola and paddy rice reached a 2- to 3-leaf stage, a predetermined dose of the emulsion prepared according to Example 4 was applied uniformly by means of a manual spraying machine. Test results were examined 21 days after the application of the chemicals in the similar manner as in Test Example 1.
The comparative chemical 1 used was that commercially available and the comparative chemical 2 used was prepared according to Example 4.

Setting [5] is: rice at 3.5 leaves stage, read-out: Inhibition (%) by treatment at 1-leaf stage of E. crus-galli var. oryzicola, paddy rice.
Where [6] appears, read: rice at 7 leaves stage, read-out: Inhibition (%) by treatment at 5-leaf stage of E. crus-galli var. oryzicola, paddy rice.
The mark [7] stands for this setting: 75 g/10 are, 1-leaf stage, read-out: Inhibition (%) by treatment at 1-leaf stage, paddy rice.
The mark [8] stands for this setting: 75 g/10 are, 5-leaf stage, read-out: Inhibition (%) by treatment at 5-leaf stage, paddy rice.
The mark [9] stands for this setting: 150 g/10 are, 1-leaf stage, read-out: Inhibition (%) by treatment at 1-leaf stage, paddy rice.
Setting [10] is: 150 g/10 are, 5-leaf stage, read-out: Inhibition (%) by treatment at 5-leaf stage, paddy rice.
Setting [11] is: 300 g/10 are, 1-leaf stage, read-out: Inhibition (%) by treatment at 1-leaf stage, paddy rice.
Where [12] appears, read: 300 g/10 are, 5-leaf stage, read-out: Inhibition (%) by treatment at 5-leaf stage, paddy rice.
[13] abbreviates: 600 g/10 are, 1-leaf stage, read-out: Inhibition (%) by treatment at 1-leaf stage, paddy rice.
Setting [14] is: 600 g/10 are, 5-leaf stage, read-out: Inhibition (%) by treatment at 5-leaf stage, paddy rice.
[15] abbreviates: 900 g/10 are, 1-leaf stage, read-out: Inhibition (%) by treatment at 1-leaf stage, paddy rice.
Where [16] appears, read: 900 g/10 are, 5-leaf stage, read-out: Inhibition (%) by treatment at 5-leaf stage, paddy rice.

Like-named read-outs stand apart in the source and are kept apart here.

A word on the inhibition: it is how much of the control response was suppressed. The term LD50 denotes the dose expected to kill half of the subjects tested. A low value points to greater toxicity.

As for `CC=CCOc1ccc(NC(=O)N(C)C)cc1` [Mixture of trans- and cis-forms 1:1], the inhibition at 3000 g/ha in the data set with paddy rice [1], in the data set with paddy rice [3] (setting [5]), in the data set on paddy rice [3] (setting [6]) and with paddy rice [4] was 0% each time. Moreover, the LD50 in the data set “Acute oral toxicity” is greater than 2000 mg/kg. Also, the “Inhibition (%) by treatment at 1-leaf stage, paddy rice” value in the data set on paddy rice [2] (75 g/10 are, 1-leaf stage) was found to be 0%; in the data set with paddy rice [2] (150 g/10 are, 1-leaf stage), 0%; in the data set with paddy rice [2] (300 g/10 are, 1-leaf stage), 0%; in the data set with paddy rice [2] (600 g/10 are, 1-leaf stage), 0%; with paddy rice [2] (900 g/10 are, 1-leaf stage), 3%. Also, the “Inhibition (%) by treatment at 5-leaf stage, paddy rice” value in the data set with paddy rice [2] (75 g/10 are, 5-leaf stage) amounted to 0%; with paddy rice [2] (150 g/10 are, 5-leaf stage) it was 0%; in the data set with paddy rice [2] (300 g/10 are, 5-leaf stage) it was 0%; in the data set on paddy rice [2] (600 g/10 are, 5-leaf stage), 0%; in the data set on paddy rice [2] (900 g/10 are, 5-leaf stage), 0%. Also, the inhibition at 1000 g/ha in the data set on paddy rice [3] (setting [5]) and in the data set on paddy rice [3] (setting [6]) was 0% in each case. Moreover, the inhibition at 9000 g/ha with paddy rice [3] (setting [5]) and with paddy rice [3] (setting [6]) was 0% each time.

As for `C/C=C/COc1ccc(NC(=O)N(C)C)cc1` [trans-form, 3-(4-trans-crotyloxyphenyl)-1,1-dimethyl urea], the inhibition at 3000 g/ha with paddy rice [1], in the data set with paddy rice [2] (setting [11]), in the data set with paddy rice [2] (setting [12]), in the data set with paddy rice [3] (setting [5]), in the data set with paddy rice [3] (setting [6]) and in the data set with paddy rice [4] was 0% throughout. Moreover, the median lethal dose (LD50) in the data set “Acute oral toxicity” is greater than 2000 mg/kg. In addition, the inhibition at 750 g/ha in the data set on paddy rice [2] (setting [7]) and with paddy rice [2] (setting [8]) was 0% in each case. In addition, the inhibition at 1500 g/ha with paddy rice [2] (setting [9]) and with paddy rice [2] (setting [10]) was 0% throughout. Besides, the inhibition at 6000 g/ha in the data set with paddy rice [2] (setting [13]) and with paddy rice [2] (setting [14]) was 0% each time. Besides, the inhibition at 9000 g/ha was determined as 2% with paddy rice [2] (setting [15]), 0% with paddy rice [2] (setting [16]), 0% with paddy rice [3] (setting [5]) and 0% with paddy rice [3] (setting [6]). The “selectivity to paddy rice” value in the data set with paddy rice [2] is recorded as “equivalent”. In addition, the inhibition at 1000 g/ha in the data set on paddy rice [3] (setting [5]) and in the data set with paddy rice [3] (setting [6]) was 0% throughout.

In the case of `C/C=C\COc1ccc(NC(=O)N(C)C)cc1` [cis-form, 3-(4-cis-crotyloxyphenyl)-1,1-dimethyl urea], the inhibition at 3000 g/ha with paddy rice [1], in the data set on paddy rice [2] (setting [11]), with paddy rice [2] (setting [12]), with paddy rice [3] (setting [5]), in the data set with paddy rice [3] (setting [6]) and in the data set on paddy rice [4] was 0% in each case. For the same molecule, the median lethal dose (LD50) in “Acute oral toxicity” was greater than 2000 mg/kg. Also, the inhibition at 750 g/ha with paddy rice [2] (setting [7]) and in the data set with paddy rice [2] (setting [8]) was 0% each time. Further, the inhibition at 1500 g/ha with paddy rice [2] (setting [9]) and with paddy rice [2] (setting [10]) was 0% in each case. Besides, the inhibition at 6000 g/ha with paddy rice [2] (setting [13]) and in the data set with paddy rice [2] (setting [14]) was 0% in each case. Besides, the inhibition at 9000 g/ha was found to be 3% in the data set with paddy rice [2] (setting [15]), 0% with paddy rice [2] (setting [16]), 0% with paddy rice [3] (setting [5]) and 0% in the data set with paddy rice [3] (setting [6]). For the same molecule, in the data set with paddy rice [2], the “selectivity to paddy rice” value was “equivalent”. Moreover, the inhibition at 1000 g/ha in the data set with paddy rice [3] (setting [5]) and in the data set with paddy rice [3] (setting [6]) was 0% in each case.
